Experimental data: publication PMC7791840, “The R-enantiomer of ketorolac reduces ovarian cancer tumor burden in vivo” (BMC Cancer, 2021)
Structures can show the parent of a compound that is named as a salt.

Tests used:
[1] = Enantiomer stability of ketorolac in the oral dosage form (HPLC); type: physicochemical; conditions: transgenic dough pills stored at 4 °C
Protocol: As an alternative to gavage for oral delivery, drug was administered in pills formed from transgenic dough (BioServ, Flemington, NJ, cat #S3472). […] Briefly, R-Ketorolac was dissolved in 100% ethanol to a concentration of 5 mg/ml. Bromophenol blue was added to solutions at a final concentration of 0.1% as an aid to ensure even distribution of drug into the dough. Placebo pills were made using an equivalent volume of 100% ethanol containing 0.1% bromophenol blue. Dough was then pressed using 100 mg pill forms (Gallipot, St. Paul, MN). Pills were allowed to dry at room temperature overnight then removed from the forms and stored at 4 °C. Ketorolac, as racemic compound or individual enantiomer, was stable for at least 3 months in the pills as determined by high performance liquid chromatography (HPLC) (Additional File 2: Figure S1).
Cell Culture and Reagents
(§1) SKOV3ip cells were modified to express GFP-Rac1 by transfection with pcDNA3-EGFP-Rac1-wt (Catalog # 12980, Addgene) as described for SKOV3ip-GFP cells under Methods. Rac1 overexpression quantification and verification was completed by western blot and qPCR. […]
(§2) Omental tissue was harvested and stored on ice in PBS for no more than 1 hour before analysis. Omenta were blotted dry on lab tissue and weight was measured using an analytical balance (Denver Instruments Company, A -160). […]

[2] = Ketorolac enantiomers in mouse blood/serum by HPLC after two-week treatment; type: in vivo, mice
Source text: For two-week tumor studies, 1 × 10^6 non-treated SKOV3ip-GFP cells were i.p. injected. All mice started R-ketorolac treatment one day prior to cell injection and continued treatment until conclusion of the study 14 days later. Mice were imaged using a Light Tools imaging system (Synopsys Optical Solutions, Westminster CO) with long pass GFP filters. Three images per mouse were captured to ensure all tumors were counted. Green fluorescent tumors were identified and counted in the peritoneal cavity as single tumors if there was a distinct border of non-fluorescent tissue. […] Blood was collected via cardiac puncture and ketorolac enantiomer concentrations were measured by HPLC analysis as described in Supplemental Methods (Additional File 1: Supplemental Methods). […]
as §1, §2
Samples were then centrifuged at 4000x g for 10 minutes at 4°C. […] Ketorolac was detected using a UV spectrometer set at UV310. […]

| SMILES | Stability in pills [1] | Accumulation with repeated dosing ([2]; mice, daily dosing 14 days) | concentration at 14 day ([2]; mouse, serum, at conclusion of chronic administration (14 day) tumor study, 1 mg/kg twice daily oral, read-out: Steady state blood concentration of R-ketorolac) |
| --- | --- | --- | --- |
| O=C(c1ccccc1)c1ccc2n1CCC2C(=O)O (stereo not drawn) [R−/S-ketorolac, ketorolac tromethamine salt] | at least 3 months |  |  |
| O=C(c1ccccc1)c1ccc2n1CC[C@H]2C(=O)O [R-ketorolac] |  | does not appear to accumulate with repeated dosing | ~1400 ng/mL |
